Source: patent US7935832B2, “Pyrrole and isoindole carboxamide derivatives as P2X7 modulators” (Glaxo Group Limited, priority 2007, dated 2011)

The compounds below were run against T1, human recombinant P2X7 receptors (Homo sapiens, UniProt Q99572) (assay: Ethidium Accumulation Assay). Conditions: HEK293 cells expressing human recombinant P2X7; 1 mM ATP, 100 μM ethidium; 30 min preincubation at room temperature; read-out: Antagonist pIC50 for blocking ATP responses (cellular accumulation of ethidium) (converted).
T1 construct: expressed in transfected cells; host or cells: HEK293
T1 sequence (Q99572 1-595): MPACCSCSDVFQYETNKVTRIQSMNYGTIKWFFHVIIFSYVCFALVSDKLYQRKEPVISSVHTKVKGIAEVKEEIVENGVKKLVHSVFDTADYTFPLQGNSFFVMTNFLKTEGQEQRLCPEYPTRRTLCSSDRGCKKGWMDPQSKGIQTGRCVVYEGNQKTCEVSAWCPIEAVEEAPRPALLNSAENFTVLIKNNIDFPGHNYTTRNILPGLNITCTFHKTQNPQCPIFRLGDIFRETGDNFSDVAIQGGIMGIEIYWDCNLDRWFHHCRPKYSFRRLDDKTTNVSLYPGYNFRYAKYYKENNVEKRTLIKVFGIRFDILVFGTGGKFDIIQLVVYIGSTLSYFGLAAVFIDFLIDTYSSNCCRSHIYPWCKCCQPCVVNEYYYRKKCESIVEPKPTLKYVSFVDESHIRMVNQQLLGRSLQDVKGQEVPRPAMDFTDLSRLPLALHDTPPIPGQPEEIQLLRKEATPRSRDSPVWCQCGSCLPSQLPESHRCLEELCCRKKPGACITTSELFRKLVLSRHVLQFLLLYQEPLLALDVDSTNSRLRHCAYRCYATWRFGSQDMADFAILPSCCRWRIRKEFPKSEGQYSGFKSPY
Type: cell-based
Experimental: Studies were performed using NaCl assay buffer of the following composition (in mM): 140 mM NaCl, HEPES 10, N-methyl-D-glucamine 5, KCl 5.6, D-glucose 10, CaCl2 0.5 (pH 7.4). HEK293 cells, expressing human recombinant P2X7 receptors, were grown in poly-L-lysine pretreated 96 well plates for 18-24 h. (The cloning of the human P2X7 receptor is described in U.S. Pat. No. 6,133,434). The cells were washed twice with 350 μl of assay buffer before addition of 50 μl of antagonist. The cells were then incubated at room temperature (19-21° C.) for 30 min before addition of ATP and ethidium (100 μM final assay concentration). The ATP concentration was chosen to be close to the EC80 for the receptor type and was 1 mM for studies on the human P2X7 receptor. Incubations were continued for 8 or 16 min and were terminated by addition of 25 μl of 1.3M sucrose containing 5 mM of the P2X7 receptor antagonist reactive black 5 (Aldrich). Cellular accumulation of ethidium was determined by measuring fluorescence (excitation wavelength of 530 nm and emission wavelength of 620 nm) from below the plate with a Canberra Packard Fluorocount (Pangbourne, UK). Antagonist pIC50 values for blocking ATP responses were determined using iterative curve fitting techniques.

Compound | IC50
CCN1C(=O)c2ccccc2C1C(=O)NCc1cccc(C(F)(F)F)c1Cl (stereo not drawn) [Example 4, N-{[2-chloro-3-(trifluoromethyl)phenyl]methyl}-2-ethyl-3-oxo-2,3-dihydro-1H-isoindole-1-carboxamide] | ≤ 126 nM
CN1C(=O)c2ccccc2C1C(=O)NCc1cccc(C(F)(F)F)c1Cl (stereo not drawn) [Example 7, N-{[2-chloro-3-(trifluoromethyl)phenyl]methyl}-2-methyl-3-oxo-2,3-dihydro-1H-isoindole-1-carboxamide] | ≤ 126 nM
CCN1C(=O)c2ccccc2C1C(=O)NCc1ccc(Cl)cc1Cl (stereo not drawn) [Example 2, N-[(2,4-dichlorophenyl)methyl]-2-ethyl-3-oxo-2,3-dihydro-1H-isoindole-1-carboxamide] | ≤ 631 nM
CN1C(=O)c2ccccc2C1C(=O)NCc1ccc(F)cc1Cl (stereo not drawn) [Example 6, N-[(2-chloro-4-fluorophenyl)methyl]-2-methyl-3-oxo-2,3-dihydro-1H-isoindole-1-carboxamide] | ≤ 631 nM

Now from value to compound:

IC50 | Compound
≤ 631 nM | CC1=CC(=O)N(C2CC2)C1C(=O)NCc1ccc(Cl)cc1Cl (stereo not drawn) [Example 1, 1-cyclopropyl-N-[(2,4-dichlorophenyl)methyl]-3-methyl-5-oxo-2,5-dihydro-1H-pyrrole-2-carboxamide]
≤ 126 nM | CN1C(=O)c2ccccc2C1C(=O)NCc1ccc(Cl)cc1Cl (stereo not drawn) [Example 5, N-[(2,4-dichlorophenyl)methyl]-2-methyl-3-oxo-2,3-dihydro-1H-isoindole-1-carboxamide]
